# Measurements from patent US4742045A, “Glycopeptide antibiotics” (SmithKline Beckman Corporation, priority 1986, dated 1988).
# Read-outs that look alike come from different tables or passages of the source.
# Columns and labels:
# [1] = test system: Staphylococcus aureus; test: standard microtiter assay, minimum inhibitory concentration; assay type: cell-based; conditions: for MIC: Staphylococcus aureus, read-out: minimum inhibitory concentration
# Excerpt: (§1) Representative results of standard microtiter assays are reported in Tables 1, 2 and 3 which follow, as the minimum inhibitory concentration of antibiotic (μg/ml).
# (§2) In Table 1, test organisms 1-13 were different strains of Staphylococcus aureus, and 14-16 were different strains of Staphylococcus epidermidis. In Table 2, test organisms 1-5 were different strains of S. aureus; 6, 8, 12 and 14 were different strains of S. epidermidis; 7 was a Staphylococcus haemolyticus; 9 and 10 were different strains of Streptococcus faecalis; 11 was a Streptococcus pyogenes; and 13 was a Staphylococcus saprophyticus. In Table 3, test organisms 1-3 were different strains of S. aureus; 4 and 6 were different strains of S. epidermidis; 5 was a S. haemolyticus and 7 and 8 were different strains of Streptococcus faecalis. Except where individual components are indicated, the CWI-785 antibiotic employed was the CWI-785 complex; in some cases, HCl salts of the CWI-785 antibiotic were employed.
# (§3) The number of strains tested is shown in parentheses below each organism. The average MIC is reported in μg/ml.
# (§4) In Table 5 are shown data from standard microtiter assays carried out in a presence of no serum, 50% human serum (hum.) and 50% mouse serum (mse.). The test organisms were 1: S. aureus; 2,4 and 5: different strains of S. epidermidis; 3: S. haemolyticus; 6: S. saprophyticus; 7 and 8: different strains of S. faecalis.
# [2] = test system: Streptococcus faecalis; test: as above; assay type: cell-based
# Excerpt: as §1, §2, §3, §4
# [3] = test system: Staphylococcus epidermidis; test: as above; assay type: cell-based
# Excerpt: as §1, §2, §4
# [4] = test system: Staphylococcus haemolyticus; test: as above; assay type: cell-based; conditions: Table 3 test organism 5, S. haemolyticus
# Excerpt: as §1, §2, §4
# [5] = test system: STAPH. AUREUS HH 127; test: prophylactic activity, dosing preinfection; assay type: in vivo, mice; conditions: for survival printed in parentheses under ED 50: Table 8, printed with ED 50 <0.156
# [6] = test system: buffered rumen fluid from a donor steer; test: 23 hour flask rumen fermentation, volatile fatty acid production
# Description: The effects of each additive on 23 hour flask rumen fermentation were assayed. Each flask contained 10 ml of rumen fluid and 10 ml of nutrient broth comprising (mg/flask): casein hydrolysate: 20, maltose: 100, urea: 15, solka floc (cellulose): 400 and starch: 100. The flasks were incubated on a shaker at 39° C.
# In Table A, ACE is acetate, PRO is propionate, IBU is isobutyrate, BUT is butyrate, IVA is isovalerate, VAL is valerate, TOTAL is total VFA and %PR is the amount of propionate relative to TOTAL. Amounts of each VFA are reported as percentages of control ruminant fluid, that is, without additive.
# [7] = test system: cecum fluid from a swine; test: swine in vitro model, cecum fluid incubation
# Description: The swine in vitro model was carried by incubating 1.5 ml of cecum fluid, from a swine fed normal rations, mixed with 1.5 ml of a nutrient broth (3 mg casein hydrolysate, 30 mg maltose, 1.25 mg urea, 0.5 mg lysine, and 30 mg cellobiose) and with up to 166.67 parts per million of a selected growth promotant at 39° C., with oscillation, for about 4-5 hours. Results, percentage of control, are reported in the following table in which all abbreviations are as above and LLAC means L-lactate, ETOH means ethanol and GLU means glucose.
# [8] = Table 3 test organism 1, S. aureus strain
# [9] = Table 3 test organism 2, S. aureus strain
# [10] = Table 3 test organism 3, S. aureus strain
# [11] = Table 3 test organism 7, Streptococcus faecalis strain
# [12] = Table 3 test organism 8, Streptococcus faecalis strain
# [13] = Table 3 test organism 4, S. epidermidis strain
# [14] = Table 3 test organism 6, S. epidermidis strain
# [15] = Table 7, vs Staph. aureus HH 127 (S.C.), read-out: ED50
# [16] = Table 7: 40 mg/kg, 4 hr preinfection, S.C.
# [17] = Table 8, vs Staph. aureus HH 127 (I.V.)
# [18] = Table 8: 40 mg/kg (I.V.), 6 hr preinfection
molecule,measurement,setting,value
"CN[C@H](C(=O)NC1C(=O)NC(CCSC)C(=O)NC2C(=O)NC3C(=O)NC(C(=O)NC(C(=O)O)c4cc(O)cc(O)c4-c4cc3ccc4O)C(O)c3ccc(c(Cl)c3)Oc3cc2cc(c3O)Oc2ccc(cc2)C1O)c1ccc(O)cc1 (some centres unmarked) [CWI-785B""-aglycone]",minimum inhibitory concentration,[1]; [8],25.0 µg/mL
same,minimum inhibitory concentration,[1]; [9],25.0 µg/mL
same,minimum inhibitory concentration,[1]; [10],25.0 µg/mL
same,minimum inhibitory concentration,[2]; [11],3.1 µg/mL
same,minimum inhibitory concentration,[2]; [12],1.6 µg/mL
same,minimum inhibitory concentration,[3]; [13],25.0 µg/mL
same,minimum inhibitory concentration,[3]; [14],25.0 µg/mL
same,minimum inhibitory concentration,[4],50.0 µg/mL
CN[C@@H](C(=O)NC1C(=O)NC(CCSC)C(=O)NC2C(=O)NC3C(=O)NC(C(=O)NC(C(=O)O)c4cc(O)cc(O)c4-c4cc3ccc4O)C(O)c3ccc(c(Cl)c3)Oc3cc2cc(c3O)Oc2ccc(cc2)C1O)c1ccc(O)cc1 (some centres unmarked) [CWI-785B'-aglycone],minimum inhibitory concentration,[1]; [8],3.1 µg/mL
same,minimum inhibitory concentration,[1]; [9],3.1 µg/mL
same,minimum inhibitory concentration,[1]; [10],3.1 µg/mL
same,minimum inhibitory concentration,[2]; [11],0.8 µg/mL
same,minimum inhibitory concentration,[2]; [12],0.8 µg/mL
same,minimum inhibitory concentration,[3]; [13],3.1 µg/mL
same,minimum inhibitory concentration,[3]; [14],6.3 µg/mL
same,minimum inhibitory concentration,[4],6.3 µg/mL
CNC(C(=O)NC1C(=O)NC(CC[S+](C)[O-])C(=O)NC2C(=O)NC3C(=O)NC(C(=O)NC(C(=O)O)c4cc(O)cc(O)c4-c4cc3ccc4O)C(OC3CC(N)C(O)C(C)O3)c3ccc(c(Cl)c3)Oc3cc2cc(c3O)Oc2ccc(cc2)C1O)c1ccc(O)cc1.Cl (centres unmarked) [HPB3 hydrochloride],ED50,[5]; [15],1.25 mg/kg
same,PERCENT SURVIVAL,[5]; [16],100%
same,survival printed in parentheses under ED 50,[5],90%
same,ED50,[5]; [17],< 0.156 mg/kg
same,PERCENT SURVIVAL,[5]; [18],60%
CNC(C(=O)NC1C(=O)NC(CCSC)C(=O)NC2C(=O)NC3C(=O)NC(C(=O)NC(C(=O)O)c4cc(O)cc(O)c4-c4cc3ccc4O)C(OC3CC(N)C(O)C(C)O3)c3ccc(c(Cl)c3)Oc3cc2cc(c3O)Oc2ccc(cc2)C1O)c1ccc(O)cc1.Cl (centres unmarked) [HPB4 hydrochloride],ED50,[5]; [15],1.25 mg/kg
same,PERCENT SURVIVAL,[5]; [16],100%
same,survival printed in parentheses under ED 50,[5],100%
same,ED50,[5]; [17],< 0.156 mg/kg
same,PERCENT SURVIVAL,[5]; [18],100%
COc1cccc(OC)c1C(=O)N[C@@H]1C(=O)N2[C@@H]1SC(C)(C)[C@@H]2C(=O)O [Methicillin],MIC,"[1]; Table 1 test organism 1, S. aureus strain",3.1 µg/mL
same,MIC,"[1]; Table 1 test organism 2, S. aureus strain",12.5 µg/mL
same,MIC,"[1]; Table 1 test organism 3, S. aureus strain",6.3 µg/mL
same,MIC,"[1]; Table 1 test organism 4, S. aureus strain",12.5 µg/mL
same,MIC,"[1]; Table 1 test organism 5, S. aureus strain",12.5 µg/mL
same,MIC,"[1]; Table 1 test organism 6, S. aureus strain",12.5 µg/mL
same,MIC,"[1]; Table 1 test organism 7, S. aureus strain",> 50 µg/mL
same,MIC,"[1]; Table 1 test organism 8, S. aureus strain",> 50 µg/mL
same,MIC,"[1]; Table 1 test organism 9, S. aureus strain",> 50 µg/mL
same,MIC,"[1]; Table 1 test organism 10, S. aureus strain",> 50 µg/mL
same,MIC,"[1]; Table 1 test organism 11, S. aureus strain",> 50 µg/mL
same,MIC,"[1]; Table 1 test organism 12, S. aureus strain",50 µg/mL
same,MIC,"[1]; Table 1 test organism 13, S. aureus strain",> 50 µg/mL
same,MIC,"[3]; Staphylococcus epidermidis, Table 1 test organism 14, S. epidermidis strain, read-out: minimum inhibitory concentration",1.6 µg/mL
same,minimum inhibitory concentration,"[3]; Table 1 test organism 15, S. epidermidis strain",1.6 µg/mL
same,minimum inhibitory concentration,"[3]; Table 1 test organism 16, S. epidermidis strain",1.6 µg/mL
"CC[C@@]1([C@@H]2O[C@@H]([C@H]3O[C@@](O)(CO)[C@H](C)C[C@@H]3C)C[C@@H]2C)CC[C@H]([C@]2(C)CC[C@]3(C[C@H](O)[C@@H](C)[C@@H]([C@@H](C)[C@@H](OC)[C@H](C)C(=O)O)O3)O2)O1 [Monensin, monensin]",ACE (acetate),[6]; 0.50 PPM,108 percentages of control
same,BUT (butyrate),[6]; 0.50 PPM,100 percentages of control
same,IBU (isobutyrate),[6]; 0.50 PPM,101 percentages of control
same,IVA (isovalerate),[6]; 0.50 PPM,246 percentages of control
same,PRO (propionate),[6]; 0.50 PPM,96 percentages of control
same,TOTAL (total VFA),[6]; 0.50 PPM,105 percentages of control
same,VAL (valerate),[6]; 0.50 PPM,114 percentages of control
same,ACE (acetate),[6]; 5.00 PPM,96 percentages of control
same,BUT (butyrate),[6]; 5.00 PPM,60 percentages of control
same,IBU (isobutyrate),[6]; 5.00 PPM,77 percentages of control
same,IVA (isovalerate),[6]; 5.00 PPM,106 percentages of control
same,PRO (propionate),[6]; 5.00 PPM,174 percentages of control
same,TOTAL (total VFA),[6]; 5.00 PPM,103 percentages of control
same,VAL (valerate),[6]; 5.00 PPM,41 percentages of control
same,ACE (acetate),[6]; 50.00 PPM,91 percentages of control
same,BUT (butyrate),[6]; 50.00 PPM,53 percentages of control
same,IBU (isobutyrate),[6]; 50.00 PPM,104 percentages of control
same,IVA (isovalerate),[6]; 50.00 PPM,134 percentages of control
same,PRO (propionate),[6]; 50.00 PPM,211 percentages of control
same,VAL (valerate),[6]; 50.00 PPM,38 percentages of control
Virginiamycin,% PR (propionate relative to TOTAL),[7]; 1.67 PPM,99% OF CONTROL
same,ACE (acetate),[7]; 1.67 PPM,138% OF CONTROL
same,BUT (butyrate),[7]; 1.67 PPM,178% OF CONTROL
same,ETOH (ethanol),[7]; 1.67 PPM,309% OF CONTROL
same,GLU (glucose),[7]; 1.67 PPM,152% OF CONTROL
same,IBU (isobutyrate),[7]; 1.67 PPM,0% OF CONTROL
same,IVA (isovalerate),[7]; 1.67 PPM,251% OF CONTROL
same,LLAC (L-lactate),[7]; 1.67 PPM,17% OF CONTROL
same,PRO (propionate),[7]; 1.67 PPM,147% OF CONTROL
same,TOTAL (total VFA),[7]; 1.67 PPM,148% OF CONTROL
same,VAL (valerate),[7]; 1.67 PPM,262% OF CONTROL
same,% PR (propionate relative to TOTAL),[7]; 16.67 PPM,81% OF CONTROL
same,ACE (acetate),[7]; 16.67 PPM,58% OF CONTROL
same,BUT (butyrate),[7]; 16.67 PPM,95% OF CONTROL
same,ETOH (ethanol),[7]; 16.67 PPM,273% OF CONTROL
same,GLU (glucose),[7]; 16.67 PPM,151% OF CONTROL
same,IBU (isobutyrate),[7]; 16.67 PPM,0% OF CONTROL
same,IVA (isovalerate),[7]; 16.67 PPM,40% OF CONTROL
same,LLAC (L-lactate),[7]; 16.67 PPM,32% OF CONTROL
same,PRO (propionate),[7]; 16.67 PPM,42% OF CONTROL
same,TOTAL (total VFA),[7]; 16.67 PPM,52% OF CONTROL
same,VAL (valerate),[7]; 16.67 PPM,113% OF CONTROL
same,% PR (propionate relative to TOTAL),[7]; 166.67 PPM,59% OF CONTROL
same,ACE (acetate),[7]; 166.67 PPM,45% OF CONTROL
same,BUT (butyrate),[7]; 166.67 PPM,83% OF CONTROL
same,ETOH (ethanol),[7]; 166.67 PPM,0% OF CONTROL
same,GLU (glucose),[7]; 166.67 PPM,151% OF CONTROL
same,IBU (isobutyrate),[7]; 166.67 PPM,0% OF CONTROL
same,IVA (isovalerate),[7]; 166.67 PPM,56% OF CONTROL
same,LLAC (L-lactate),[7]; 166.67 PPM,39% OF CONTROL
same,PRO (propionate),[7]; 166.67 PPM,20% OF CONTROL
same,TOTAL (total VFA),[7]; 166.67 PPM,34% OF CONTROL
same,VAL (valerate),[7]; 166.67 PPM,84% OF CONTROL
